# Measured values from patent publication US8143374B2, “Polypeptide derivatives of parathyroid hormone (PTH)” (The General Hospital Corporation, priority 2006, dated 2012).
# Where a SMILES comes first, the peptide text is derived from it. [ ]: non-standard residue; d: D form. Cha = N[C@@H](CC1CCCCC1)C(=O)O
# What was measured:
# PTHR-delNt = biological target: T1, PTHR-delNt (Homo sapiens, UniProt Q03431, DEL24-181); experiment: Competition binding in COS-7 cell membranes with 125I-[Aib1,3,M]PTH(1-15)NH2 tracer; settings: for reduction (alteration) of binding affinity for PTHR-delNt relative to parent peptide: versus the respective parent peptide; for IC50: [Ala1,Arg19]hPTH(1-31)NH2 analogs, COS-7 membranes cotransfected with negative-dominant Gαs, read-out: PTHR-delNT (COS-7) IC50
# T1 construct: expressed in transfected cells; host or cells: COS-7 cells, transient co-transfection; membranes prepared
# T1 sequence (Q03431 with tags, fused parts or gaps DEL24-181): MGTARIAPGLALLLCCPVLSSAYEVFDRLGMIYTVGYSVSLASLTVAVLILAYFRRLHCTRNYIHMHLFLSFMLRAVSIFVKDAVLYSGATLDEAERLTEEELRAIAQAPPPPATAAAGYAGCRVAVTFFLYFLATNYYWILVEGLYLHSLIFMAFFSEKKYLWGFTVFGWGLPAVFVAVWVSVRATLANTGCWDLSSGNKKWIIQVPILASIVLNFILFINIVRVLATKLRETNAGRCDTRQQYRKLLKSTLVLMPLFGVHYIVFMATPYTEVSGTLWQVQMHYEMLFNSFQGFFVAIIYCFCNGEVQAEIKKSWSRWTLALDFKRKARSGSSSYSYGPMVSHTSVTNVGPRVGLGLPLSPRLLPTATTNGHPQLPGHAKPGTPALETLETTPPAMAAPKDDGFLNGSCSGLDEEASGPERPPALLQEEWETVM
# Method: PTHR-delNt is a derivative of the human PTHR that is deleted for most (Ala^24-Arg^181) of the amino-terminal extracellular domain (Shimizu, M., et al. (2001) Endocrinology 142:3068-3074). This PTHR construct was expressed in COS-7 cells via transient DNA transfection. For cAMP assays, the cells were transfected in 24-well plates using 0.2 μg of plasmid DNA and 0.6 μl of Fugene-6 reagent (Roche Diagnostics, Indianapolis Ind.) per well, and assays were performed on the intact cells three to four days after transfection. For binding assays, cell membranes were prepared from transfected COS-7 cells. To increase the maximal binding of ^125I-[Aib^1,3,M]PTH(1-15)NH2 to PTHR-delNt in these membranes, the cells were cotransfected with a negative dominant mutant Gαs protein (Gαs^ND). This mutant Gαs subunit is thought to couple to cognate receptors, and thus stabilize high affinity receptor conformations, more efficiently than does wild-type Gαs, without increasing basal cAMP levels (Berlot, C. H. (2002) J Biol Chem 277:21080-5). A precursor of this mutant Gαs, Gαs(α3β5), was recently used to increase binding of ^125I-[Aib^1,3,M]PTH(1-15)NH2 to PTHR-delNt in COS-7 cell membranes (Dean, T., (2006) Mol Endocrinol 20:931-942). Gαs^ND, which contains the same five amino acid replacement of corresponding Gαi residues in the α3β5 loop as Gαs(α3β5), plus the point mutations of Gly^226 to Ala, which increases affinity for Gβ/γ, and Ala^366 to Ser, which decreases affinity for GDP, yields approximately two-fold higher levels of specific binding of ^125I-[Aib^1,3,M]PTH(1-15)NH2 than does Gαs(α3β5) (data not shown). For the current membrane preparations, COS-7 cells were co-transfected in six-well plates using 1 μg of each plasmid DNA encoding PTHR-delNt and Gαs^ND, and 6 μl of Fugene-6 reagent (Roche Diagnostics, Indianapolis Ind.) per well. Cells were harvested three days after transfection, and membranes were prepared as described (Dean, T., et al. (2006) Mol Endocrinol 20:931-942).
# Receptor binding—Binding to the wild-type human PTHR in intact HKRK-B7 cells and ROS 17/2.8 cells was assessed using ^125I-PTH(1-34) as a tracer radioligand, as described (Shimizu, M., (2001) Endocrinology 142:3068-3074). In brief, the cells in 24-well plates (about 500,000 cells per well) were incubated in binding buffer containing radioligand (about 100,000 cpm per well) with or without unlabeled peptide ligand (3×10^−9 to 1×10^−5 M) for four hours at 15° C. The binding mixture was then removed by aspiration, the cells were rinsed three times with binding buffer, lysed in 1 M NaOH, and the entire lysate was counted for gamma-irradiation in a gamma counter. Binding to PTHR-delNt in COS-7 cell membranes was assessed in 96-well, vacuum filtration plates (Multiscreen-Durapore HV, […] membranes, Millipore Corp., Millford, Mass.) using ^125I-[Aib^1,3,M]PTH(1-15)NH2 as a tracer radioligand, as described (Dean, T., (2006) Mol Endocrinol 20:931-942). In brief, cell membranes (20 μg/well) were incubated in membrane binding buffer containing radioligand (30,000 cpm/well) with or without unlabeled peptide ligand (3×10^−9 to 1×10^−5 M) for 90 minutes at 21° C. The plates were then subject to rapid vacuum filtration, the filters were washed once with buffer, detached from the plate and counted for gamma-irradiation in a gamma counter. Non-specific binding was defined as the binding observed in the presence of 1×10^−6 M PTH(1-31)NH2 for HKRK-B7 and ROS 17/2.8 cells, and 1×10^−6 M [Aib^1,3,M]PTH(1-15)NH2 for PTHR-delNt. Specifically bound radioactivity was calculated as a percentage of the radioactivity specifically bound in the absence of competing ligand. […]
# [1] = Circular dichroism spectroscopy, helical residues per peptide chain; assay type: physicochemical; settings: [Ala1,Arg19]hPTH(1-31)NH2 analogs; calculated from [θ]222
# Method: Circular Dichroism—CD spectra were obtained on a JASCO J-600 spectropolarimeter at 20° C. Four spectra were averaged and the data smoothed by the JASCO software. The instrument was calibrated with ammonium (+)-10-camphorsulfonate. Peptide concentrations were verified from the absorption at 280 nm, using an extinction coefficient of 5700 M^−1 for the single tryptophan. Data are expressed as the number of helical residues per peptide chain, as calculated from −[θ]222×30/28,000, where [θ]222 is the mean residue elipticity ([θ]) at 222 nm, as was described previously (Barbier, J. R., et al. (2005) J Biol Chem. 280:23771-23777).
SMILES,reduction (alteration) of binding affinity for PTHR-delNt relative to parent peptide (PTHR-delNt; COS-7 membranes),IC50 (PTHR-delNt) [nM],CD helical residues [1],effect on binding to PTHR-delNt (in words) (PTHR-delNt; COS-7 membranes)
CC[C@H](C)[C@H](NC(=O)[C@H](CCC(=O)O)NC(=O)[C@H](CO)NC(=O)[C@@H](NC(=O)[C@H](C)N)C(C)C)C(=O)N[C@@H](CCC(N)=O)C(=O)N[C@@H](CC(C)C)C(=O)N[C@@H](CCSC)C(=O)N[C@@H](Cc1c[nH]cn1)C(=O)N[C@@H](CC(N)=O)C(=O)N[C@@H](CC(C)C)C(=O)NCC(=O)N[C@@H](CCCCN)C(=O)N[C@@H](Cc1c[nH]cn1)C(=O)N[C@@H](CC(C)C)C(=O)N[C@@H](CC(N)=O)C(=O)N[C@@H](CO)C(=O)N[C@@H](CCSC)C(=O)N[C@@H](CCCNC(=N)N)C(=O)N[C@@H](CCCNC(=N)N)C(=O)N[C@H](C(=O)N[C@@H](CCC(=O)O)C(=O)N[C@@H](Cc1c[nH]c2ccccc12)C(=O)N[C@@H](CC(C)C)C(=O)N[C@@H](CCCNC(=N)N)C(=O)N[C@@H](CC1CCCCC1)C(=O)N[C@@H](CCCCN)C(=O)N[C@@H](CC(C)C)C(=O)N[C@@H](CCC(N)=O)C(=O)N[C@@H](CC(=O)O)C(=O)N[C@H](C(N)=O)C(C)C)C(C)C [Lys^26→Cha] (H-AVSEIQLMHNLGKHLNSMRRVEWLR[Cha]KLQDV-NH2; N-terminus assumed),approximately five- to seven-fold,1870 ± 281,6,–
CC[C@H](C)[C@H](NC(=O)[C@H](CCC(=O)O)NC(=O)[C@H](CO)NC(=O)[C@@H](NC(=O)[C@H](C)N)C(C)C)C(=O)N[C@@H](CCC(N)=O)C(=O)N[C@@H](CC(C)C)C(=O)N[C@@H](CCSC)C(=O)N[C@@H](Cc1c[nH]cn1)C(=O)N[C@@H](CC(N)=O)C(=O)N[C@@H](CC(C)C)C(=O)NCC(=O)N[C@@H](CCCCN)C(=O)N[C@@H](Cc1c[nH]cn1)C(=O)N[C@@H](CC(C)C)C(=O)N[C@@H](CC(N)=O)C(=O)N[C@@H](CO)C(=O)N[C@@H](CCSC)C(=O)N[C@@H](CCCNC(=N)N)C(=O)N[C@@H](CCCNC(=N)N)C(=O)N[C@H](C(=O)N[C@@H](CCC(=O)O)C(=O)N[C@@H](Cc1c[nH]c2ccccc12)C(=O)N[C@@H](CC(C)C)C(=O)N[C@@H](CCCNC(=N)N)C(=O)N[C@@H](CCCCN)C(=O)N[C@@H](CC1CCCCC1)C(=O)N[C@@H](CC(C)C)C(=O)N[C@@H](CCC(N)=O)C(=O)N[C@@H](CC(=O)O)C(=O)N[C@H](C(N)=O)C(C)C)C(C)C [Lys^27→Cha] (H-AVSEIQLMHNLGKHLNSMRRVEWLRK[Cha]LQDV-NH2; N-terminus assumed),–,629 ± 72,18,–
CC[C@H](C)[C@H](NC(=O)[C@H](CCC(=O)O)NC(=O)[C@H](CO)NC(=O)[C@@H](NC(=O)[C@H](C)N)C(C)C)C(=O)N[C@@H](CCC(N)=O)C(=O)N[C@@H](CC(C)C)C(=O)N[C@@H](CCSC)C(=O)N[C@@H](Cc1c[nH]cn1)C(=O)N[C@@H](CC(N)=O)C(=O)N[C@@H](CC(C)C)C(=O)NCC(=O)N[C@@H](CCCCN)C(=O)N[C@@H](Cc1c[nH]cn1)C(=O)N[C@@H](CC(C)C)C(=O)N[C@@H](CC(N)=O)C(=O)N[C@@H](CO)C(=O)N[C@@H](CC1CCCCC1)C(=O)N[C@@H](CCCNC(=N)N)C(=O)N[C@@H](CCCNC(=N)N)C(=O)N[C@H](C(=O)N[C@@H](CCC(=O)O)C(=O)N[C@@H](Cc1c[nH]c2ccccc12)C(=O)N[C@@H](CC(C)C)C(=O)N[C@@H](CCCNC(=N)N)C(=O)N[C@@H](CCCCN)C(=O)N[C@@H](CCCCN)C(=O)N[C@@H](CC(C)C)C(=O)N[C@@H](CCC(N)=O)C(=O)N[C@@H](CC(=O)O)C(=O)N[C@H](C(N)=O)C(C)C)C(C)C [Met^18→Cha] (H-AVSEIQLMHNLGKHLNS[Cha]RRVEWLRKKLQDV-NH2; N-terminus assumed),–,408 ± 32,8,–
CC[C@H](C)[C@H](NC(=O)[C@H](CCC(=O)O)NC(=O)[C@H](CO)NC(=O)[C@@H](NC(=O)[C@H](C)N)C(C)C)C(=O)N[C@@H](CCC(N)=O)C(=O)N[C@@H](CC(C)C)C(=O)N[C@@H](CCSC)C(=O)N[C@@H](Cc1c[nH]cn1)C(=O)N[C@@H](CC(N)=O)C(=O)N[C@@H](CC(C)C)C(=O)NCC(=O)N[C@@H](CCCCN)C(=O)N[C@@H](Cc1c[nH]cn1)C(=O)N[C@@H](CC(C)C)C(=O)N[C@@H](CC(N)=O)C(=O)N[C@@H](CC1CCCCC1)C(=O)N[C@@H](CCSC)C(=O)N[C@@H](CCCNC(=N)N)C(=O)N[C@@H](CCCNC(=N)N)C(=O)N[C@H](C(=O)N[C@@H](CCC(=O)O)C(=O)N[C@@H](Cc1c[nH]c2ccccc12)C(=O)N[C@@H](CC(C)C)C(=O)N[C@@H](CCCNC(=N)N)C(=O)N[C@@H](CCCCN)C(=O)N[C@@H](CCCCN)C(=O)N[C@@H](CC(C)C)C(=O)N[C@@H](CCC(N)=O)C(=O)N[C@@H](CC(=O)O)C(=O)N[C@H](C(N)=O)C(C)C)C(C)C [Ser^17→Cha] (H-AVSEIQLMHNLGKHLN[Cha]MRRVEWLRKKLQDV-NH2; N-terminus assumed),–,179 ± 41,9,–
CC[C@H](C)[C@H](NC(=O)[C@H](CCC(=O)O)NC(=O)[C@H](CO)NC(=O)[C@@H](NC(=O)[C@H](C)N)C(C)C)C(=O)N[C@@H](CCC(N)=O)C(=O)N[C@@H](CC(C)C)C(=O)N[C@@H](CCSC)C(=O)N[C@@H](Cc1c[nH]cn1)C(=O)N[C@@H](CC(N)=O)C(=O)N[C@@H](CC(C)C)C(=O)NCC(=O)N[C@@H](CCCCN)C(=O)N[C@@H](Cc1c[nH]cn1)C(=O)N[C@@H](CC(C)C)C(=O)N[C@@H](CC(N)=O)C(=O)N[C@@H](CO)C(=O)N[C@@H](CCSC)C(=O)N[C@@H](CCCNC(=N)N)C(=O)N[C@@H](CCCNC(=N)N)C(=O)N[C@H](C(=O)N[C@@H](CCC(=O)O)C(=O)N[C@@H](CC1CCCCC1)C(=O)N[C@@H](CC(C)C)C(=O)N[C@@H](CCCNC(=N)N)C(=O)N[C@@H](CCCCN)C(=O)N[C@@H](CCCCN)C(=O)N[C@@H](CC(C)C)C(=O)N[C@@H](CCC(N)=O)C(=O)N[C@@H](CC(=O)O)C(=O)N[C@H](C(N)=O)C(C)C)C(C)C [Trp^23→Cha] (H-AVSEIQLMHNLGKHLNSMRRVE[Cha]LRKKLQDV-NH2; N-terminus assumed),three-fold or less,867 ± 402,8,little or no effect on binding to PTHR-delNt
